One test relates to AMPA receptor. The following applies: Table 2; suppression of AMPA-induced calcium influx into nerve cells.
For test [1], the system named is experimental autoimmune encephalomyelitis. The test can be described thus: Experimental autoimmune encephalomyelitis model. The format is in vivo. The following applies: p.o. 5, 10 and 20 mg/kg, 10-16 days post immunisation, female Lewis rats, versus vehicle. The protocol:
Female Lewis rats (205±10 g) obtained from Charles River, Kent UK, were housed in pairs under environmentally controlled conditions (6:00 a.m.-6:00 p.m. light/dark cycle; 22-24° C.; 45-55% humidity) and allowed free access to food and water. Experimental groups consisted of 9-12 animals. Rats were immunised in each hind foot with 20-50 μl of inoculum containing 50 μg guinea pig myelin basic protein (MBP; final concentration 2 mg/ml), emulsified in Freund's complete adjuvant (CFA; Sigma, UK) containing Mycobacterium tuberculosis H37Ra (final concentration 5.5 mg/ml; Difco Laboratories, UK). Animals were weighed and monitored daily and clinical disease scored as (O) no clinical signs; (1) flaccid tail and weight loss; (2) hind limb hypotonia with further weight loss; (3) complete hind limb paralysis; (4) paraplegia and (5) death. […] During the period of compound administration (10-16 days post immunisation; dpi) animals were scored 15 h after injection of vehicle or compound to avoid any acute effect of treatment on disease score. Compounds were dissolved/suspended in 0.5% methyl cellulose using a hand held Polytron homogeniser (PT1200; 2 min). Rats were dosed p.o. with either methyl cellulose vehicle (2.5 ml/kg) or compound at 5, 10 and 20 mg/kg. Results: the compound of the invention is improved in view of experimental autoimmune encephalomyelitis.

In test [2] the test system is convulsions induced by AMPA. The test can be described thus: Anticonvulsant action induced by AMPA. The test is classed as in vivo, mice of ddy strain. The following applies: 25 mg/kg orally, male ddy mice; AMPA continuously injected into lateral ventricle 30 minutes or 1 hour after. The protocol: A test compound was suspended in a 0.5% methyl cellulose solution or in sesame oil and was orally administered (25 mg/kg) to male mice of ddy strain. After 30 minutes or 1 hour from the oral administration, AMPA was continuously injected ([…]/5 μl/minute/mouse) into lateral ventricle to induce the convulsions. The effect was judged by a time-extending action until the convulsion takes place by a continuous injection of AMPA.
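Wherever IC50 is given: primary rat embryonic cortical neurons grown on an astrocyte layer in 96-well plates, used after at least 8 to 10 days in culture, Fura2-AM fluorescence ratio at 340/380 nm excitation.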

The term IC50 denotes the midpoint of a concentration-inhibition curve. Regarding `N#Cc1ccccc1-c1cc(-c2ncccn2)cn(-c2cccnc2)c1=O` [Example 261, 3-(2-Cyanophenyl)-1-(3-pyridyl)-5-(2-pyrimidinyl)-1,2-dihydropyridin-2-one], the IC50 in the test with AMPA receptor was 80 nM. Further, in test [1], the “effect on experimental autoimmune encephalomyelitis (clinical disease score)” value (shortened to “effect”) was “superior effect to the vehicle-administered group”. Further, the “anticonvulsant action (time-extending action until the convulsion takes place)” value (“anticonvulsant action” below) in test [2] was “significant anticonvulsant action”.

As to `O=c1c(-c2cccnc2F)cc(-c2ccccn2)cn1-c1cccnc1` [Example 139, 3-(2-Fluoro-3-pyridyl)-5-(2-pyridyl)-1-(3-pyridyl)-1,2-dihydropyridin-2-one], in the test with AMPA receptor, the IC50 is 300 nM. In addition, the “effect” value in test [1] is recorded as “superior effect to the vehicle-administered group”. Moreover, in test [2], the “anticonvulsant action” value is “significant anticonvulsant action”.

Take `N#Cc1ccccc1-c1cc(-c2ncccn2)cn(-c2ccccc2)c1=O` [Example 164, 3-(2-Cyanophenyl)-1-phenyl-5-(2-pyrimidinyl)-1,2-dihydropyridin-2-one]: in the test with AMPA receptor, the IC50 was 80 nM. The “effect” value in test [1] was “superior effect to the vehicle-administered group”. The “anticonvulsant action” value in test [2] is “significant anticonvulsant action”.

The values above are taken from patent publication US6949571B2, “1,2-dihydropyridine compounds, process for preparation of the same and use thereof” (Eisai Co., Ltd., priority 2000, dated 2005).
